Tests used:
HDAC6 human recombinant = HDAC6 human recombinant (Homo sapiens (Human), UniProt Q9UBN7); assay: HDAC enzyme activity inhibition (in vitro), HDAC6 assay; format: biochemical; conditions: samples at 0.1, 1, 10, 100 and 1000 nM; 37° C. 60 minutes; fluorescence Ex 390, Em 460
HDAC1 = HDAC1 (Homo sapiens (Human), UniProt Q13547); assay: HDAC enzyme activity inhibition (in vitro), HDAC1 Fluorimetric Drug Discovery Assay Kit; format: biochemical; conditions: samples at 100, 1000 and 10000 nM; 37° C. 60 minutes; fluorescence Ex 390, Em 460
HDAC1, sequence (Q13547 whole entry): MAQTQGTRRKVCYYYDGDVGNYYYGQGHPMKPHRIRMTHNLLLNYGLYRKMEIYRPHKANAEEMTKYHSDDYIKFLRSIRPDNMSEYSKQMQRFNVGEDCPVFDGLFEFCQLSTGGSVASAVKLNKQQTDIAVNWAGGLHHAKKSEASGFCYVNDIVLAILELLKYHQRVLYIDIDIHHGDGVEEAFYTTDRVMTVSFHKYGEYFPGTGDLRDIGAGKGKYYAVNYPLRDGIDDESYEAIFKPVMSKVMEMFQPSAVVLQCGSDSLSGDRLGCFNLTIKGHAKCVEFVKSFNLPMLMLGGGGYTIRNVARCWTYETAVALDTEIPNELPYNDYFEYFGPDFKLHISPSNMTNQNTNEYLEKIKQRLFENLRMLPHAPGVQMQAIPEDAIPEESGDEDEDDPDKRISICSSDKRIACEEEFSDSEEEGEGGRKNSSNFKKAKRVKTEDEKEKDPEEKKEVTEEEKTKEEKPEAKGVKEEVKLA

HDAC6 human recombinant, sequence (Q9UBN7 whole entry): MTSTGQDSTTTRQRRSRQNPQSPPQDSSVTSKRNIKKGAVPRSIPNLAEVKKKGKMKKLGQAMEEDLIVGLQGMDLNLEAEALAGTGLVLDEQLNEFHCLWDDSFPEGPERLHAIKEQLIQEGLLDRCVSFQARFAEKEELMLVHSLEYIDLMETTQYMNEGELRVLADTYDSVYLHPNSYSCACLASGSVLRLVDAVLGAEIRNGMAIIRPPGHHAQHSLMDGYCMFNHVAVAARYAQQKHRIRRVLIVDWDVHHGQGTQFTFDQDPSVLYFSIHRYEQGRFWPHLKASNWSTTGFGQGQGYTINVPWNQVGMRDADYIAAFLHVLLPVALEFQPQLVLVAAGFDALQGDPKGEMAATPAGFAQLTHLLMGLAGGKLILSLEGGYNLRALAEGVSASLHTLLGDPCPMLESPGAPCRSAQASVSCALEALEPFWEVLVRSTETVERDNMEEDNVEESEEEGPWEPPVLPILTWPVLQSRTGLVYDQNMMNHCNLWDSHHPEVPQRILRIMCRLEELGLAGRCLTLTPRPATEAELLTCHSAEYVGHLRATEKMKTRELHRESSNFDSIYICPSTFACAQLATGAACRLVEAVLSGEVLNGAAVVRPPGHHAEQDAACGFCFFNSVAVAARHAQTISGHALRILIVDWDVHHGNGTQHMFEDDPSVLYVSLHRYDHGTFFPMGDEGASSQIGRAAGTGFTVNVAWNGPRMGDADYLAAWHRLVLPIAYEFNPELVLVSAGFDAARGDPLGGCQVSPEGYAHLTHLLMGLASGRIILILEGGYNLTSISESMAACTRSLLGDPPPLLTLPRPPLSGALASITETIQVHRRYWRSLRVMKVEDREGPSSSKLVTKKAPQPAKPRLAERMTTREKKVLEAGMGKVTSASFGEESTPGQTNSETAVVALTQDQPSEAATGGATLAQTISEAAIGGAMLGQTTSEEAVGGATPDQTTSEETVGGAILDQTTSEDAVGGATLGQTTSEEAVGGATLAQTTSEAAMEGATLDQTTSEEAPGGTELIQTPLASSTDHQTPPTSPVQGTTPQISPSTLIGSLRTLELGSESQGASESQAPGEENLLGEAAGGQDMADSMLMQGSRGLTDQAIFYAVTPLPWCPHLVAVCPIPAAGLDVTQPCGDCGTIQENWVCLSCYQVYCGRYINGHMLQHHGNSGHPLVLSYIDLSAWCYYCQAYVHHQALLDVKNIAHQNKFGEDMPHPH

SMILES	IC50 (HDAC6 human recombinant)	IC50 (HDAC1)
CC1(C)C(=O)N(Cc2ccc(-c3nnc(C(F)F)o3)cn2)C(=O)c2ccc(N3CCN(CC4CCCCC4)CC3)cc21 [Compound 48, 6-(4-(cyclohexylmethyl)piperazine-1-yl)-2-((5-(5-(difluoromethyl)-1,3,4-oxadiazole-2-yl)pyridine-2-yl)methyl)-4,4-dimethylisoquinoline-1,3(2H,4H)-dione]	342 nM	> 10000 nM
CC1(C)C(=O)N(Cc2ccc(-c3nnc(C(F)F)o3)cn2)C(=O)c2ccc(-c3ccccc3F)cc21 [Compound 103, 2-((5-(5-(difluoromethyl)-1,3,4-oxadiazole-2-yl)pyridine-2-yl)methyl)-6-(2-fluorophenyl)-4,4-dimethylisoquinoline-1,3(2H,4H)-dione]	59 nM	> 10000 nM
CCC(F)(F)CN1CCN(c2ccc3c(c2)C(C)(C)C(=O)N(Cc2ccc(-c4nnc(C(F)F)o4)cn2)C3=O)CC1 [Compound 139, 6-(4-(2,2-difluorobutyl)piperazine-1-yl)-2-((5-(5-(difluoromethyl)-1,3,4-oxadiazole-2-yl)pyridine-2-yl)methyl)-4,4-dimethylisoquinoline-1,3(2H,4H)-dione]	683 nM	> 10000 nM
CC(C)CCN1CCN(c2ccc3c(c2)C(=O)N(Cc2ccc(-c4nnc(C(F)F)o4)cn2)C(=O)C3(C)C)CC1 [Compound 132, 2-((5-(5-(difluoromethyl)-1,3,4-oxadiazole-2-yl)pyridine-2-yl)methyl)-7-(4-isopentylpiperazine-1-yl)-4,4-dimethylisoquinoline-1,3(2H,4H)-dione]	69 nM	> 10000 nM
CC(C)(C)OC(=O)N1CCN(c2ccc3c(c2)C(C)(C)C(=O)N(Cc2ccc(-c4nnc(C(F)F)o4)cn2)C3=O)CC1 [Compound 25, tert-butyl 4-(2-((5-(5-(difluoromethyl)-1,3,4-oxadiazole-2-yl)pyridine-2-yl)methyl)-4,4-dimethyl-1,3-dioxo-1,2,3,4-tetrahydroisoquinoline-6-yl)piperazine-1-carboxylate]	158 nM	> 10000 nM
Cn1c(=O)n(Cc2ccc(-c3nnc(C(F)F)o3)cn2)c(=O)c2cc(F)ccc21 [Compound 70, 3-((5-(5-(difluoromethyl)-1,3,4-oxadiazole-2-yl)pyridine-2-yl)methyl)-6-fluoro-1-methylquinazoline-2,4(1H,3H)-dione]	59 nM	> 10000 nM
CN(C)CCN(C)c1ccc2c(c1)C(C)(C)C(=O)N(Cc1ccc(-c3nnc(C(F)F)o3)cn1)C2=O [Compound 38, 2-((5-(5-(difluoromethyl)-1,3,4-oxadiazole-2-yl)pyridine-2-yl)methyl)-6-((2-(dimethylamino)ethyl)(methyl)amino)-4,4-dimethylisoquinoline-1,3(2H,4H)-dione]	24 nM	> 10000 nM
CC(C)(C)OC(=O)N1CCC(Cn2c(=O)n(Cc3ccc(-c4nnc(C(F)F)o4)cn3)c(=O)c3cc(F)ccc32)CC1 [Compound 72, Tert-butyl 4-((3-((5-(5-(difluoromethyl)-1,3,4-oxadiazole-2-yl)pyridine-2-yl)methyl)-6-fluoro-2,4-dioxo-3,4-dihydroquinazoline-1(2H)-yl)methyl)piperidine-1-carboxylate]	310 nM	> 10000 nM
COCCn1c(=O)n(Cc2ccc(-c3nnc(C(F)F)o3)cn2)c(=O)c2ccccc21 [Compound 17, 3-((5-(5-(difluoromethyl)-1,3,4-oxadiazole-2-yl)pyridine-2-yl)methyl)-1-(2-methoxyethyl)quinazoline-2,4(1H,3H)-dione]	165 nM	> 10000 nM
O=c1c2cc(F)ccc2n(CCN2CCCCC2)c(=O)n1Cc1ccc(-c2nnc(C(F)F)o2)cn1 [Compound 71, 3-((5-(5-(difluoromethyl)-1,3,4-oxadiazole-2-yl)pyridine-2-yl)methyl)-6-fluoro-1-(2-(piperidine-1-yl)ethyl)quinazoline-2,4(1H,3H)-dione]	150 nM	> 10000 nM
CC1(C)C(=O)N(Cc2ccc(-c3nnc(C(F)F)o3)cc2F)C(=O)c2ccccc21 [Compound 7, 2-(4-(5-(difluoromethyl)-1,3,4-oxadiazole-2-yl)-2-fluorobenzyl)-4,4-dimethylisoquinoline-1,3(2H,4H)-dione]	145 nM	> 10000 nM
CC1(C)C(=O)N(Cc2ccc(-c3nnc(C(F)F)o3)cn2)C(=O)c2c(-c3ccco3)cccc21 [Compound 82, 2-((5-(5-(difluoromethyl)-1,3,4-oxadiazole-2-yl)pyridine-2-yl)methyl)-8-(furan-2-yl)-4,4-dimethylisoquinoline-1,3(2H,4H)-dione]	92 nM	> 10000 nM
CCCCCN1CCN(c2ccc3c(c2)C(C)(C)C(=O)N(Cc2ccc(-c4nnc(C(F)F)o4)cn2)C3=O)CC1 [Compound 45, 2-((5-(5-(difluoromethyl)-1,3,4-oxadiazole-2-yl)pyridine-2-yl)methyl)-4,4-dimethyl-6-(4-pentylpiperazine-1-yl)isoquinoline-1,3(2H,4H)-dione]	156 nM	> 10000 nM
CC1(C)C(=O)N(Cc2ccc(-c3nnc(C(F)F)o3)cc2)C(=O)c2ccccc21 [Compound 6, 2-(4-(5-(difluoromethyl)-1,3,4-oxadiazole-2-yl)benzyl)-4,4-dimethylisoquinoline-1,3(2H,4H)-dione]	647 nM	> 10000 nM

More lines, now with the values ahead:

IC50 (HDAC6 human recombinant)	IC50 (HDAC1)	SMILES
58 nM	> 10000 nM	CC1(C)C(=O)N(Cc2ccc(-c3nnc(C(F)F)o3)cn2)C(=O)c2cc(C3CCN(C4CCOC4)CC3)ccc21 (stereo not shown) [Compound 146, 2-((5-(5-(difluoromethyl)-1,3,4-oxadiazole-2-yl)pyridine-2-yl)methyl)-4,4-dimethyl-7-(1-(tetrahydrofuran-3-yl)piperidine-4-yl)isoquinoline-1,3(2H,4H)-dione]
12 nM	> 10000 nM	CC1(C)C(=O)N(Cc2ccc(-c3nnc(C(F)F)o3)cn2)C(=O)c2cc(C3CCN(C(=O)CO)CC3)ccc21 [Compound 134, 2-((5-(5-(difluoromethyl)-1,3,4-oxadiazole-2-yl)pyridine-2-yl)methyl)-7-(1-(2-hydroxyacetyl)piperidine-4-yl)-4,4-dimethylisoquinoline-1,3(2H,4H)-dione]
21 nM	> 10000 nM	CCCN1CCC(c2ccc3c(c2)C(=O)N(Cc2ccc(-c4nnc(C(F)F)o4)cn2)C(=O)C3(C)C)CC1 [Compound 143, 2-((5-(5-(difluoromethyl)-1,3,4-oxadiazole-2-yl)pyridine-2-yl)methyl)-4,4-dimethyl-7-(1-propylpiperidine-4-yl) isoquinoline-1,3 (2H,4H)-dione]
20 nM	> 10000 nM	CCN1CCC(c2ccc3c(c2)C(=O)N(Cc2ccc(-c4nnc(C(F)F)o4)cn2)C(=O)C3(C)C)CC1 [Compound 68, 2-((5-(5-(difluoromethyl)-1,3,4-oxadiazole-2-yl)pyridine-2-yl)methyl)-7-(1-ethylpiperidine-4-yl)-4,4-dimethylisoquinoline-1,3(2H,4H)-dione]
17 nM	> 10000 nM	CC1(C)C(=O)N(Cc2ccc(-c3nnc(C(F)F)o3)cn2)C(=O)c2cc(C3=CC[S+]([O-])CC3)ccc21 (stereo not shown) [Compound 123, 2-((5-(5-(difluoromethyl)-1,3,4-oxadiazole-2-yl)pyridine-2-yl)methyl)-4,4-dimethyl-7-(1-oxydo-3,6-dihydro-2H-thiopyran-4-yl)isoquinoline-1,3(2H,4H)-dione]
36 nM	> 10000 nM	CC1(C)C(=O)N(Cc2ccc(-c3nnc(C(F)F)o3)cn2)C(=O)c2cc(C3=CCSCC3)ccc21 [Compound 121, 2-((5-(5-(difluoromethyl)-1,3,4-oxadiazole-2-yl)pyridine-2-yl)methyl)-7-(3,6-dihydro-2H-thiopyran-4-yl)-4,4-dimethylisoquinoline-1,3(2H,4H)-dione]
24 nM	> 10000 nM	CC1(C)C(=O)N(Cc2ccc(-c3nnc(C(F)F)o3)cn2)C(=O)c2ccc(N3CCN(C(C)(C)C)CC3)cc21 [Compound 36, 6-(4-(tert-butyl)piperazine-1-yl)-2-((5-(5-(difluoromethyl)-1,3,4-oxadiazole-2-yl)pyridine-2-yl)methyl)-4,4-dimethylisoquinoline-1,3(2H,4H)-dione]
37 nM	> 10000 nM	Cn1c(=O)n(Cc2ccc(-c3nnc(C(F)F)o3)cn2)c(=O)c2ccc(-c3cccnc3)cc21 [Compound 100, 3-((5-(5-(difluoromethyl)-1,3,4-oxadiazole-2-yl)pyridine-2-yl)methyl)-1-methyl-7-(pyridine-3-yl)quinazoline-2,4(1H,3H)-dione]
35 nM	> 10000 nM	CC1(C)C(=O)N(Cc2ccc(-c3nnc(C(F)F)o3)cn2)C(=O)c2ccc(C3CCN(C4COC4)CC3)cc21 [Compound 61, 2-((5-(5-(difluoromethyl)-1,3,4-oxadiazole-2-yl)pyridine-2-yl)methyl)-4,4-dimethyl-6-(1-(oxetan-3-yl)piperidine-4-yl)isoquinoline-1,3(2H,4H)-dione]
32 nM	> 10000 nM	CCCN1CCN(c2ccc3c(c2)C(C)(C)C(=O)N(Cc2ccc(-c4nnc(C(F)F)o4)cn2)C3=O)CC1 [Compound 148]
21 nM	> 10000 nM	Cn1c(=O)n(Cc2ccc(-c3nnc(C(F)F)o3)cn2)c(=O)c2cc(-c3ccoc3)ccc21 [Compound 88, 3-((5-(5-(difluoromethyl)-1,3,4-oxadiazole-2-yl)pyridine-2-yl)methyl)-6-(furan-3-yl)-1-methylquinazoline-2,4(1H,3H)-dione]
38 nM	> 10000 nM	CC(C)N1CC=C(c2ccc3c(=O)n(Cc4ccc(-c5nnc(C(F)F)o5)cn4)c(=O)n(C)c3c2)CC1 [Compound 124, 3-((5-(5-(difluoromethyl)-1,3,4-oxadiazole-2-yl)pyridine-2-yl)methyl)-7-(1-isopropyl-1,2,3,6-tetrahydropyridine-4-yl)-1-methylquinazoline-2,4(1H,3H)-dione]

From US12440484B2, “1,3,4-oxadiazole homophthalimide derivative compounds as histone deacetylase 6 inhibitor, and the pharmaceutical composition comprising the same” (Chong Kun Dang Pharmaceutical Corp., priority 2019, dated 2025)
